Experimental data published in patent US20040266659A1, “[…] THAT ENHANCE RECALL AND LUCIDITY DURING DREAMING” (priority 2003, published 2004).
Read-outs that look alike come from different tables or passages of the source.

Experiments:
lucid dreaming = system: lucid dreaming
Source text: These include: 1. Using a cholinergic agonist (e.g., nicotine).

REM sleep = conditions: cited from earlier work
[1] = system: normal volunteers self-selected for high dream recall and interest in lucid dreaming; assay: randomized, double blind, placebo-controlled crossover trial of donepizil for lucid dreaming; format: in vivo, human; conditions: for odds of lucid dreaming: placebo 0.031
Source text: Subjects collected dream content and other self-report measures on three nights, separated by a washout period of at least one week. […] After each spontaneous awakening during the three nights, Ss evaluated dream content on a range of measures including bizarreness, complexity, and intensity, affect, cognitive clarity, lucidity, and control. They also estimated sleep quality, insomnia, and degree of any adverse effects.

[2] = rivastigmin 6-12 mg dose, galantamine 8-16 mg

For `CCN(C)C(=O)Oc1cccc([C@H](C)N(C)C)c1` [Exelon, rivastigmin], the “efficacy compared with Aricept” value (lucid dreaming; [2]) was “work as well as” and the “side effects compared with Aricept” value (lucid dreaming; [2]) was “perhaps fewer side effects”.

For `COC(=O)C1=CCCN(C)C1` [arecoline], the “effect on REM sleep” value (REM sleep; scientific literature studies) is given as “triggering/intensification of REM sleep”.

In the case of `C[N+](C)(C)CCOC(N)=O` [carbachol], the “effect on REM sleep” value (REM sleep; microinjection in certain locations of the brain, such as the Pons) is given as “elicits extended periods of REM sleep”.

With `COc1cc2c(cc1OC)C(=O)C(CC1CCN(Cc3ccccc3)CC1)C2` (centres unmarked) [donepizil] the “levels of dream variables, 5 mg dose vs placebo” value ([1]; 5 mg compared to placebo) was “significant elevations”, the “odds of lucid dreaming” value ([1]; 5 mg) was 0.429 and the “levels of dream variables, 10 mg dose vs 5 mg dose” value ([1]; 10 mg compared to 5 mg) was “significantly higher levels”. The “odds of lucid dreaming” value ([1]; 10 mg) was 0.754, the “self-reported cognitive clarity, self-reflection and lucidity during dreaming, compared to placebo” value ([1]; both 5 and 10 mg dosages) was “significantly enhance” and the “frequency of sleep paralysis” value ([1]; donepizil vs placebo) was “significantly elevated”. The “Ss reporting one or more lucid dreams on the experimental nights” value ([1]; nine of 10 Ss, 5 or 10 mg at bedtime, only one S on a placebo night) was 90%, the “estimated time awake during the night” value ([1]; of a 9.0 hr night, placebo 126 min, p<0.05) was 176 min and the “incidence of adverse events, notably mild insomnia and gastrointestinal symptoms” value ([1]; primarily associated with the higher dose, two subjects nausea, one vomiting) was “low”. The “cognitive clarity, lucidity, recall, control, bizarreness and visual vividness compared to placebo” value ([1]; self-report after each spontaneous awakening, donepizil vs placebo) was “significantly elevated” and the “increase in estimated time awake during the night” value ([1]; vs placebo, 9.0 hr night, p<0.05) was 40%.

For `COc1ccc2c3c1O[C@H]1C[C@@H](O)C=C[C@@]31CCN(C)C2` [galantamine], the “side effects compared with Aricept” value (lucid dreaming; [2]) was “perhaps fewer side effects”.

In the case of huperzine, the “outcome of test for lucid dreaming enhancement” value (lucid dreaming; dose correspondence with Aricept not yet worked out) is reported as “promising results”.
